From patent publication US20110237686A1, “FORMULATIONS AND METHODS OF USE” (Cerulean Pharma Inc, priority 2010, published 2011)
Where “and” joins values, the source holds several entries; their conditions need not be identical. Equal values may be shown once.

Tests used:
[1] = test system: B16.F10 cells; assay: CellTiter-Glo Luminescent Cell Viability Assay (cytotoxicity of nanoparticles); format: cell-based, mouse; conditions: for IC50: Mus musculus, B16.F10 cells, 24, 48 and 72 hours of incubation tested, time of the IC50 not stated
Experimental: The Cytotoxicity of nanoparticles formed from polymer drug conjugates was evaluated using the following protocol. […] B16.F10 cells, grown to 85-90% confluency in 150 cm^2 flasks (passage<30), were resuspended in media (MEM-alpha, 10% HI-FBS, 1× antibiotic-antimycotic) and added to 96-well opaque-clear bottom plates at a concentration of 1500 cells/well in 200 μL/well. The cells were incubated at 37° C. with 5% CO2 for 24 hours. The following day, serial dilutions of 2×concentrated particles and 2× concentrated free drug were made in 12-well reservoirs with media to specified concentrations. The media in the plates was replaced with 100 μL of fresh media and 100 μL of the corresponding serially diluted drug. Three sets of plates were prepared with duplicate treatments. Following 24, 48 and 72 hours of incubation at 37° C. with 5% CO2, the media in the plates was replaced with 100 μL of fresh media and […] of CTG solution, and then incubated for 5 minutes on a plate shaker at room temperature set to 450 rpm and allowed to rest for 15 minutes. Viable cells were measured by luminescence using a microtiter plate reader. The data was plotted as % viability vs. concentration and standardized to untreated cells.

[2] = test system: HCT-116 colon xenograft model; assay: In vivo efficacy in HCT-116 colon xenograft model; set-up: species or system mouse; conditions: 30 mg/kg IV; male CD-1 nude mice
Experimental: HCT-116 cells were grown in culture to confluency in McCoy's 5a medium containing 10% FBS and 1% penicillin/streptomycin and then resuspended in McCoy's 5a (passage 4).
The treatments were administered 1V into the tail vein at the respective dose volumes (refer to previous paragraph), beginning on post-implantation Day 13, when the mean tumor volume was 131 mm3.

[3] = test system: normal male C57BL/6 non-tumor-bearing mice; assay: Tolerability in normal non-tumor-bearing mice (body weight, CBC, serum chemistry, ataxia, sciatic nerve histology); format: in vivo, mouse; conditions: for Lymphocyte mean / Neutrophil mean / WBC # mean: blood Day 14; for mice developing ataxia / Ataxia (%): n=5/group; for Ataxia (%): intravenous q7d×2, male C57BL/6 mice, to Day 14
Experimental: Treatments were administered intravenously on a q7d×2 schedule, i.e., two treatments seven days apart (the first treatment was on Day one). The study ended on Day 14, six days after the 2nd treatment. Blood was collected for complete blood count (CBC) and serum chemistry. Leg muscles were collected so that nerve degeneration could be assessed from the sciatic nerve.

[4] = test system: B16.F10 murine melanoma model; assay: Efficacy and tolerability of PEGylated docetaxel-5050 PLGA-O-acetyl nanoparticles in B16.F10 murine melanoma model; format: in vivo, mouse
Experimental: Refer to table for detailed description of formulations.
Tumor volume was calculated with the following equation: (width×width×length)/2 mm3.

[5] = test system: SK-OV-3 ovarian human xenograft model; assay: In vivo efficacy in SK-OV-3 ovarian human xenograft model; set-up: species or system mouse
Experimental: SK-OV-3 cells were grown in culture to confluency in RPMI medium containing 10% FBS and 1% penicillin/streptomycin and then resuspended in RPMI (passage 4) for implantation into mice. […]

[6] = test system: MDA-MB-435 melanoma human xenograft model; assay: In vivo efficacy in MDA-MB-435 melanoma human xenograft model; set-up: species or system mouse
Experimental: MDA-MB-435 cells were grown in culture to confluency in RPMI medium containing 10% FBS and 1% penicillin/streptomycin and then resuspended in RPMI (passage 4) for implantation into mice. A volume of 0.1 mL containing 4.0×10^6 cells MDA-MB-435 cells were implanted into the mammary gland of female CD-1 nude mice on Day 1.

[7] = Simple lyophilization of PLGA7K-PVA-PEG2K-30 and PLGA7K-PVA-PEG5K-30 PEGylated nanoparticle formulations; format: physicochemical; conditions: 2K PEG PLGA nanoparticles 20 mg/mL, cryoprotectant 20 mg/mL (1:1 w/w)
Excerpt: The results are similar to that obtained for PEGylated nanoparticles A except for SB-β-CD. The result from SB-β-CD supported the H-bonding mechanism for cryoprotection of PEGylated PLGA nanoparticles since SB-β-CD has less hydroxyl groups than α-CD, γ-CD and HP-β-CD (about ⅓ of —OH groups of β-CD are substituted by sulfobutyl groups).

[8] = Lyophilization of stealth liposome (Doxil); format: physicochemical; conditions: lipids 16 mg/mL, Sucrose lyophilization cycle, post lyophilization
[9] = Cryoprotectant screen, sucrose lyophilization cycle; format: physicochemical; conditions: PEGylated nanoparticles A; for Dv90 / PDI / Zave: reconstituted
Experimental: A cryoprotectant screen was performed as follows.
These conditions are shown below in Table 21.

[10] = Lyophilization using HP-β-CD, freezing with liquid nitrogen and vacuum at room temperature; format: physicochemical; conditions: PEGylated nanoparticles A, polymer 31.25 mg/mL, cryoprotectant 40 mg/mL (1.28:1 w/w), vacuum at room temperature;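 further: cyclodextrins or their derivatives tested as cryoprotectant during lyophilization of PEGylated nanoparticles, assessing particle size growth attributed to PEG crystallization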
Experimental: In this example, a new strategy of using cyclodextrins and their derivatives as a cryoprotectant was tested. […] A cryoprotectant is needed to lyophilize liquid formulation that contain PEGylated nanoparticles A (Entries #1 and #2).

[11] = q4dq3dx3, 15 mg/kg IV, male C57BL/6 mice
[12] = q7d schedule, three times once every week, 15 mg/kg
[13] = cryoprotectant 100 mg/mL (6.25:1 w/w lipid)
[14] = cryoprotectant 150 mg/mL (12.5:1 w/w lipid)
[15] = cryoprotectant 200 mg/mL (18.5:1 w/w lipid)
[16] = polymer 10.42 mg/mL (Doce. 0.50), cryoprotectant 100 mg/mL (9.6:1 w/w)
[17] = polymer 20.83 mg/mL (Doce. 1.00), cryoprotectant 100 mg/mL (4.8:1 w/w)
[18] = polymer 26.05 mg/mL (Doce. 1.25), cryoprotectant 100 mg/mL (3.8:1 w/w)
[19] = polymer 31.25 mg/mL (Doce. 1.5), cryoprotectant 100 mg/mL (3.2:1 w/w)

CC(=O)O[C@@]12CO[C@@H]1C[C@H](O)[C@@]1(C)C(=O)[C@H](O)C3=C(C)[C@@H](OC(=O)[C@H](O)[C@@H](NC(=O)OC(C)(C)C)c4ccccc4)C[C@@](O)([C@@H](OC(=O)c4ccccc4)[C@H]21)C3(C)C [Free docetaxel, docetaxel]
IC50 [1]: 0.13 µM
Maximum body weight loss [2]: 14%
body weight above initial on Day 14 ([3]; 30 mg/kg IV q7d×2): 3%
Lymphocyte mean ([3]; 30 mg/kg IV q7d×2): 4350 cells/μL
Neutrophil mean ([3]; 30 mg/kg IV q7d×2): 556 cells/μL
WBC # mean ([3]; 30 mg/kg IV q7d×2): 5.1 ×1000 cells/μL
mice developing ataxia ([3]; 30 mg/kg IV q7d×2): no mice
body weight above initial on Day 14 ([3]; 45 mg/kg IV q7d×2): 2%
Lymphocyte mean ([3]; 45 mg/kg IV q7d×2): 6780 cells/μL
Neutrophil mean ([3]; 45 mg/kg IV q7d×2): 752 cells/μL
WBC # mean ([3]; 45 mg/kg IV q7d×2): 7.8 ×1000 cells/μL
mice developing ataxia ([3]; 45 mg/kg IV q7d×2, Day 14): One mouse
body weight lost after the second treatment, by the end of the study ([3]; 60 mg/kg IV q7d×2, Day 14): 19%
Lymphocyte mean ([3]; 60 mg/kg IV q7d×2): 5590 cells/μL
Neutrophil mean ([3]; 60 mg/kg IV q7d×2): 470 cells/μL
WBC # mean ([3]; 60 mg/kg IV q7d×2): 6.2 ×1000 cells/μL
mice developing ataxia ([3]; 60 mg/kg IV q7d×2): Five out of five mice
Ataxia (%) ([3]; dose 30 mg/kg): 0%
Ataxia (%) ([3]; dose 45 mg/kg): 20%
Ataxia (%) ([3]; dose 60 mg/kg): 100%
serum chemistry parameters ([3]; doses up to 60 mg/kg): did not affect any serum chemistry parameter
Maximum body weight loss ([4]; q3dq4dx3, 15 mg/kg IV, male C57BL/6 mice, listed as Docetaxel): 12% and 11%
Maximum body weight loss ([4]; q3dq4dx3, 15 mg/kg IV, male C57BL/6 mice, listed as docetaxel): 12% and 11%
Maximum body weight loss [4, 11]: 11%
Tumor growth delay (TGD) [4, 11]: 11 days
Tumor growth inhibition (TGI) [4, 11]: 90%
Maximum body weight loss ([4]; q7dx3, 30 mg/kg IV, male C57BL/6 mice): 11%
Maximum body weight loss ([4]; q14dx2, 60 mg/kg IV, male C57BL/6 mice, listed as Docetaxel): 0%
Maximum body weight loss ([4]; q14dx2, 60 mg/kg IV, male C57BL/6 mice, listed as docetaxel): did not show any body weight loss
Maximum body weight loss [4, 12]: 11%
TGD [4, 12]: 11 days
Maximum body weight loss ([5]; 30 mg/kg weekly×2): 13%
ataxia ([5]; 30 mg/kg weekly×2): did not cause ataxia
body weight loss ([5]; 60 mg/kg IV Days 51 and 58 (weekly×2), female CD-1 nude mice): greater than 20%
ataxia ([5]; 60 mg/kg weekly×2, four days after the second treatment): observed in all the mice
Maximum body weight loss ([6]; 15 mg/kg IV Days 21 and 28 (weekly×2)): 10%
Maximum body weight loss ([6]; 30 mg/kg IV Days 21 and 28 (weekly×2)): 14%
ataxia ([6]; 30 mg/kg weekly×2): did not cause ataxia
body weight loss ([6]; 60 mg/kg IV Days 21 and 28 (weekly×2), female CD-1 nude mice): greater than 20%
ataxia ([6]; 60 mg/kg weekly×2, listed as docetaxel): developed ataxia
ataxia ([6]; 60 mg/kg weekly×2, listed as free docetaxel): Ataxia was observed

COc1cccc2c1C(=O)c1c(O)c3c(c(O)c1C2=O)C[C@@](O)(C(=O)CO)C[C@@H]3O[C@H]1C[C@H](N)[C@H](O)[C@H](C)O1 [Free doxorubicin, doxorubicin]
IC50 [1]: 14 µM

CC(=O)O[C@H]1C(=O)[C@@]2(C)[C@H]([C@H](OC(=O)c3ccccc3)[C@]3(O)C[C@H](OC(=O)[C@H](O)[C@@H](NC(=O)c4ccccc4)c4ccccc4)C(C)=C1C3(C)C)[C@]1(OC(C)=O)CO[C@@H]1C[C@@H]2O [Free paclitaxel, paclitaxel]
IC50 [1]: 7 µM

OC[C@H]1O[C@@](CO)(O[C@H]2O[C@H](CO)[C@@H](O)[C@H](O)[C@H]2O)[C@@H](O)[C@@H]1O [Sucrose, sucrose]
outcome after lyophilization (in place of particle size) [7]: Precipitated
Dv90 [8, 13]: 58.5 nm
PDI [8, 13]: 0.390
Zave [8, 13]: 142.4 nm
Dv90 [8, 14]: 533 nm
PDI [8, 14]: 0.484
Zave [8, 14]: 219.3 nm
Dv90 [8, 15]: 1640 nm
PDI [8, 15]: 0.506
Zave [8, 15]: 200.2 nm
Filtration Loss (0.2 μm PES Filter) [9, 16]: 2%
Lyophilized preparation Appearance [9, 16]: good
Recon. Solution Appearance [9, 16]: good
Dv90 [9, 16]: 120 nm
PDI [9, 16]: 0.081
Zave [9, 16]: 90.62 nm
Filtration Loss (0.2 μm PES Filter) [9, 17]: 2%
Lyophilized preparation Appearance [9, 17]: good
Recon. Solution Appearance [9, 17]: good
Dv90 [9, 17]: 120 nm
PDI [9, 17]: 0.081
Zave [9, 17]: 91.37 nm
Filtration Loss (0.2 μm PES Filter) [9, 18]: 10%
Lyophilized preparation Appearance [9, 18]: good
Recon. Solution Appearance [9, 18]: good
PDI [9, 18]: 0.110
Zave [9, 18]: 92.79 nm
Lyophilized preparation Appearance [9, 19]: good
Recon. Solution Appearance [9, 19]: slight
Filtration Loss (0.2 μm PES Filter) ([9]; polymer 31.25 mg/mL (Doce. 1.50), cryoprotectant 100 mg/mL (3.2:1 w/w)): 15%
PDI [9, 19]: 0.125
Zave [9, 19]: 94.72 nm
Dv90 [10]: 155 nm
PDI [10]: 0.207
Reconstituted Solution appearance [10]: precipitation
Zave [10]: 197.2 nm

doxorubicin 5050 PLGA amide
growth of B16.F10 cells ([1]; 24, 48 and 72 hours of incubation): inhibited the growth of B16.F10 cells in a dose and time dependent manner
